This assay addresses T1, human IBAT (Homo sapiens, UniProt Q12908).
T1 construct: Bases 599 to 1645 correspond to the complete coding region of human IBAT; expressed in transfected cells
T1 sequence (Q12908 1-348): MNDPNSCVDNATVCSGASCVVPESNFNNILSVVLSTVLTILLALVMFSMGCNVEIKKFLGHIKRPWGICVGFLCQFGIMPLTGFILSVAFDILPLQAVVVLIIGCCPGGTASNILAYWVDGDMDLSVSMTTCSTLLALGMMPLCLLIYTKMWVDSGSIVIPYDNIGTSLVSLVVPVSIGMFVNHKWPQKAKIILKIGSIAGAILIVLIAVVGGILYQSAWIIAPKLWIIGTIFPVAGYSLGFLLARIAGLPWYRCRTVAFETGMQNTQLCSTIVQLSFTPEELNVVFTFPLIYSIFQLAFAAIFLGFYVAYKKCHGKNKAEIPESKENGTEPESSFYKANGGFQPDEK
Briefly: In vitro IBAT inhibition assay: uptake of [3H]-taurocholic acid into CHO-hIBAT cells. The format is cell-based. The note with it: taurocholic acid 10 μM, 60 min at room temperature, read-out: IC-50 (human IBAT). The text has this: Preparation and Procedure for the In Vitro IBAT Inhibition Assay:
• 1. Cloning of an Expression Vector for Human IBAT
The cDNA (complementary deoxyribonucleic acid) of human IBAT was cloned by standard methods of molecular biology as described for example in Molecular Cloning: A Laboratory Manual by Joseph Sambrook and David Russell, and introduced into the pcDNA1 vector from Invitrogen. […] Bases 599 to 1645 correspond to the complete coding region of human IBAT. • 2. Preparation of a Recombinant Cell Line with Constitutive Expression of Human IBAT
The expression vector for human IBAT was introduced by stable transfection into CHO (chinese hamster ovary) cells. […]
CHO-hIBAT cells were seeded in a concentration of 40 000 cells per well in poly-D-lysine-coated 96-well plates in cell culture medium and cultured for 24 h. […] Finally, 100 μl of scintillation fluid were added to each well, and the radioactivity taken up into the cells was determined in a MicroBeta Scintillation Microplate Reader from Wallac.
The half-maximum inhibitory effect of the test compound (IC50 value, inhibitory concentration 50) was determined in the following way: • 1. […] This is the measurement in the absence of substance, measured in sodium-containing transport assay buffer. • 2. […] This is the measurement in the absence of substance, measured in sodium-free transport assay buffer. • 3. […]

Consider two molecules from US7923468B2, “1,4-benzothiepin-1,1-dioxide derivatives which are substituted with cyclohexyl groups, method for producing the same, drugs containing said compounds and use thereof” (Sanofi-Aventis Deutschland GmbH, priority 2006, dated 2011).

Each structure is given as a SMILES string.

Take `CCCC[C@]1(CC)CS(=O)(=O)c2ccc(N(C)C)cc2[C@@H](c2cccc(NC(=O)N[C@@H]3[C@@H](O)[C@H](OCc4ccccc4)[C@@H](O)[C@H](OCc4ccccc4)[C@H]3O)c2)[C@H]1O` [Example 1]: the IC50 is 4.2 nM.

`CCCC[C@]1(CC)CS(=O)(=O)c2ccc(N(C)C)cc2[C@@H](c2cccc(NC(=O)N[C@@H]3[C@@H](OS(=O)(=O)O)[C@H](OCc4ccccc4)[C@@H](OS(=O)(=O)O)[C@H](OCc4ccccc4)[C@H]3OS(=O)(=O)O)c2)[C@H]1O` [Example 2]: the IC50 came to 16 nM.
